Assay results taken from article PMC7615677 (Science translational medicine, 2023).
Like-named read-outs stand apart in the source and are kept apart here.

Experiments:
[1] = tested on: L. infantum MHOM/MA67/ITMAP263; test: Acute mouse infection model (VL); type: in vivo, BALB/c mice; conditions: for decrease in the liver parasite burden compared to control animals: 5 consecutive days
Description: (§1) Female 8−10-week-old BALB/c mice were infected with 2 x 10^7 L. donovani MHOM/ET/67/L82 (synonym HU3) or L. infantum MHOM/MA67/ITMAP263 amastigotes on day 0 and dispatched in groups of five individuals. […] Five days following end of treatment, all mice were sacrificed, and parasite burden was determined from smears of liver sections. Efficacy was expressed as the mean percentage load reduction compared to untreated (vehicle-only) control animals. Reference drugs miltefosine and/or AmBisome were used as positive controls and comparators.

[2] = tested on: L. donovani MHOM/ET/67/L82 (synonym HU3); test: Acute mouse infection model (VL); type: in vivo, BALB/c mice; conditions: 12.5 mg/kg bid or higher, 5-day dosing
Description: as §1

[3] = tested on: T. brucei brucei (bloodstream form); test: In vitro activity against other kinetoplastid parasites; type: cell-based; conditions: Trypanosoma brucei, one range given for T. brucei brucei and T. b. rhodesiense
[4] = In vitro metabolism, liver microsomes; type: in vitro ADME; conditions: Rat
Description: (§2) Compounds were spiked into microsomal matrix prepared in 0.1 M pH 7.4 phosphate buffer containing magnesium chloride (final concentration of 3.3 mM), equilibrated for 5-10 min at 37°C. The reaction was initiated with the addition of freshly prepared solution of NADPH (final 1.3 mM). Control samples without co-factor were included for comparison. Aliquots of the reaction mixtures were taken periodically over 60 min and quenched with acetonitrile containing internal standards (metolazone and diazepam). Quenched samples were maintained on ice for approximately 20-30 min, centrifuged (for 5 min) and the supernatant was analyzed by LC-MS.
In vitro intrinsic clearance (CLint, μL/min/mg or μL/min/10^6 cells) values were calculated from the apparent first order degradation rate constant divided by the microsome concentration or the hepatocyte cell number (10^6 viable cells/mL). In vitro CLint values were then divided by the fraction unbound in the in vitro test system (to give CLint,u) and scaled to in vivo values (mL/min/kg) using published physiological scaling factors ([28]). Blood clearance in each species was then calculated using the well-stirred model of hepatic extraction (equation 2) where Q is the hepatic blood flow and fu,blood is calculated from fu,plasma/B:P: [2] PredictedCLblood=Q x fu,blood x CLint,u/Q+fu,blood x CLint,u […]

[5] = In vitro metabolism, liver microsomes; type: in vitro ADME, dog
Description: as §2
In vitro intrinsic clearance (CLint, μL/min/mg or μL/min/10^6 cells) values were calculated from the apparent first order degradation rate constant divided by the microsome concentration or the hepatocyte cell number (10^6 viable cells/mL). In vitro CLint values were then divided by the fraction unbound in the in vitro test system (to give CLint,u) and scaled to in vivo values (mL/min/kg) using published physiological scaling factors ([28]). Blood clearance in each species was then calculated using the well-stirred model of hepatic extraction (equation 2) where Q is the hepatic blood flow and fu,blood is calculated from fu,plasma/B:P: [2] PredictedCLblood=Q x fu,blood x CLint,u/Q+fu,blood x CLint,u
Blood clearance values were converted to plasma clearance by multiplying by the B:P.

[6] = In vitro cytotoxicity assay; type: cell-based; conditions: human, MRC-5 human fetal lung fibroblasts

Cc1[nH]c2nc(N)nc(C)c2c1-c1ccc(C#N)c2c1OCO2 [DNDI-6174]
reduction in liver parasite burden ([1]; 12.5 mg/kg bid or higher, 5-day dosing): > 95%
decrease in the liver parasite burden compared to control animals ([1]; 12.5 mg/kg bid): > 98%
decrease in the liver parasite burden compared to control animals ([1]; 25 mg/kg qd): > 98%
reduction in liver parasite burden [2]: > 95%
EC50 [3]: 5 to 20 µM
Microsome predicted in vivo CLplasma [4]: 2.4 mL/min/kg
microsomal CLint at 0.5 µM ([4]; liver microsomes, pH 7.4, 2 independent experiments, read-out: In vitro Microsome CLint): 10 ± 0.79 µL/min/mg
Microsome predicted in vivo CLplasma ([5]; Dog): 0.91 mL/min/kg
In vitro Microsome CLint ([5]; Dog, 2 independent experiments): 4.8 ± 0.47 µL/min/mg
microsomal CLint at 0.5 µM ([5]; dog, liver microsomes, pH 7.4, Dog, 2 independent experiments, read-out: In vitro Microsome CLint): 8.3 ± 0.65 µL/min/mg
CC50 [6]: > 64 µM
